# Data taken from ChEMBL document CHEMBL1201862, “PubChem BioAssay data set” (2004).
#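 Cells were grown in 96-well plates and exposed to each compound for 48 hours at five concentrations; endpoints were interpolated linearly between bracketing concentrations, or set to the highest concentration if not reached. At the GI50, growth is halved.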 Active and inactive are the calls of the source. No stated cut-off is given here; in the data, active = GI50 up to about 1.1 µM and inactive = higher.
# Assays:
# Experiment in all cases: growth of human tumour cells (NCI), 48 h
# HCT-116 = system: HCT-116
# RXF 393 = system: RXF 393
# COLO 205 = system: COLO 205
# UO-31 = system: UO-31
# SNB-19 = system: SNB-19
# MOLT-4 = system: MOLT-4
# MDA-MB-435 = system: MDA-MB-435
# NCI/ADR-RES = system: NCI/ADR-RES
# MCF7 = system: MCF7
# MDA-N = system: MDA-N
# U-251 = system: U-251
# LOX IMVI = system: LOX IMVI
# 786-0 = system: 786-0
# A498 = system: A498
# CCRF-CEM = system: CCRF-CEM
# SK-MEL-28 = system: SK-MEL-28
# SK-MEL-5 = system: SK-MEL-5
# HT-29 = system: HT-29
# DU-145 = system: DU-145
# M14 = system: M14
# UACC-257 = system: UACC-257
# UACC-62 = system: UACC-62
# K562 = system: K562
# OVCAR-3 = system: OVCAR-3
# EKVX = system: EKVX
# SN12C = system: SN12C
# MDA-MB-231 = system: MDA-MB-231
# PC-3 = system: PC-3
# SF-268 = system: SF-268
# KM12 = system: KM12
# OVCAR-5 = system: OVCAR-5
# SF-539 = system: SF-539
# SK-OV-3 = system: SK-OV-3
# HCT-15 = system: HCT-15
# IGROV-1 = system: IGROV-1
# NCI-H23 = system: NCI-H23
# Malme-3M = system: Malme-3M
# TK-10 = system: TK-10
# ACHN = system: ACHN
# OVCAR-8 = system: OVCAR-8
# BT-549 = system: BT-549
# HL-60 = system: HL-60
# SF-295 = system: SF-295
# Hs-578T = system: Hs-578T
# SK-MEL-2 = system: SK-MEL-2
# NCI-H226 = system: NCI-H226
# CAKI-1 = system: CAKI-1
# SW-620 = system: SW-620
# RPMI-8226 = system: RPMI-8226
# A549 = system: A549
# HOP-62 = system: HOP-62
# HCC 2998 = system: HCC 2998
# NCI-H460 = system: NCI-H460
# HOP-92 = system: HOP-92
# OVCAR-4 = system: OVCAR-4
# SNB-75 = system: SNB-75
# SR = system: SR
# NCI-H522 = system: NCI-H522
compound,measurement,setting,value
O=C(c1ccc(Cl)cc1Cl)N(C(=O)N1CCCCC1)c1ccccc1,GI50,HCT-116,> 100 µM (inactive)
same,GI50,RXF 393,> 100 µM (inactive)
same,GI50,COLO 205,> 100 µM (inactive)
same,GI50,UO-31,> 100 µM (inactive)
same,GI50,SNB-19,> 100 µM (inactive)
same,GI50,MOLT-4,> 100 µM (inactive)
same,GI50,MDA-MB-435,> 100 µM (inactive)
same,GI50,NCI/ADR-RES,> 100 µM (inactive)
same,GI50,MCF7,> 100 µM (inactive)
same,GI50,MDA-N,> 100 µM (inactive)
same,GI50,U-251,> 100 µM (inactive)
same,GI50,LOX IMVI,> 100 µM (inactive)
same,GI50,786-0,> 100 µM (inactive)
same,GI50,A498,> 100 µM (inactive)
same,GI50,CCRF-CEM,> 100 µM (inactive)
same,GI50,SK-MEL-28,> 100 µM (inactive)
same,GI50,SK-MEL-5,> 100 µM (inactive)
same,GI50,HT-29,> 100 µM (inactive)
same,GI50,DU-145,> 100 µM (inactive)
same,GI50,M14,> 100 µM (inactive)
same,GI50,UACC-257,> 100 µM (inactive)
same,GI50,UACC-62,> 100 µM (inactive)
same,GI50,K562,> 100 µM (inactive)
same,GI50,OVCAR-3,42.5 µM (inactive)
same,GI50,EKVX,5.45 µM (inactive)
same,GI50,SN12C,> 100 µM (inactive)
same,GI50,MDA-MB-231,> 100 µM (inactive)
same,GI50,PC-3,> 100 µM (inactive)
same,GI50,SF-268,> 100 µM (inactive)
same,GI50,KM12,> 100 µM (inactive)
same,GI50,OVCAR-5,69.3 µM (inactive)
same,GI50,SF-539,> 100 µM (inactive)
same,GI50,SK-OV-3,> 100 µM (inactive)
same,GI50,HCT-15,> 100 µM
same,GI50,IGROV-1,> 100 µM (inactive)
same,GI50,NCI-H23,> 100 µM (inactive)
same,GI50,Malme-3M,5.94 µM (inactive)
same,GI50,TK-10,> 100 µM (inactive)
same,GI50,ACHN,> 100 µM (inactive)
same,GI50,OVCAR-8,> 100 µM (inactive)
same,GI50,BT-549,> 100 µM (inactive)
same,GI50,HL-60,> 100 µM (inactive)
same,GI50,SF-295,> 100 µM (inactive)
same,GI50,Hs-578T,> 100 µM (inactive)
same,GI50,SK-MEL-2,> 100 µM (inactive)
same,GI50,NCI-H226,> 100 µM (inactive)
same,GI50,CAKI-1,> 100 µM (inactive)
same,GI50,SW-620,> 100 µM (inactive)
same,GI50,RPMI-8226,> 100 µM (inactive)
CC(C)(C)n1c(=O)[nH]c(=O)n1C(C)(C)C,GI50,HCT-116,> 100 µM (inactive)
same,GI50,RXF 393,> 100 µM (inactive)
same,GI50,COLO 205,> 100 µM (inactive)
same,GI50,UO-31,> 100 µM (inactive)
same,GI50,SNB-19,> 100 µM (inactive)
same,GI50,MOLT-4,> 100 µM (inactive)
same,GI50,NCI/ADR-RES,> 100 µM (inactive)
same,GI50,MCF7,> 100 µM (inactive)
same,GI50,MDA-N,> 100 µM (inactive)
same,GI50,U-251,> 100 µM (inactive)
same,GI50,LOX IMVI,> 100 µM (inactive)
same,GI50,786-0,> 100 µM (inactive)
same,GI50,A498,> 100 µM (inactive)
same,GI50,A549,> 100 µM (inactive)
same,GI50,CCRF-CEM,> 100 µM (inactive)
same,GI50,SK-MEL-28,> 100 µM (inactive)
same,GI50,SK-MEL-5,> 100 µM (inactive)
same,GI50,HT-29,> 100 µM (inactive)
same,GI50,HOP-62,> 100 µM (inactive)
same,GI50,M14,> 100 µM (inactive)
same,GI50,UACC-257,> 100 µM (inactive)
same,GI50,UACC-62,> 100 µM (inactive)
same,GI50,K562,> 100 µM (inactive)
same,GI50,OVCAR-3,> 100 µM (inactive)
same,GI50,HCC 2998,> 100 µM (inactive)
same,GI50,EKVX,> 100 µM (inactive)
same,GI50,SN12C,> 100 µM (inactive)
same,GI50,NCI-H460,> 100 µM (inactive)
same,GI50,MDA-MB-231,> 100 µM (inactive)
same,GI50,PC-3,> 100 µM (inactive)
same,GI50,HOP-92,> 100 µM (inactive)
same,GI50,KM12,> 100 µM (inactive)
same,GI50,OVCAR-5,> 100 µM (inactive)
same,GI50,SF-539,> 100 µM (inactive)
same,GI50,SK-OV-3,> 100 µM (inactive)
same,GI50,HCT-15,> 100 µM
same,GI50,IGROV-1,> 100 µM (inactive)
same,GI50,NCI-H23,> 100 µM (inactive)
same,GI50,Malme-3M,> 100 µM (inactive)
same,GI50,TK-10,> 100 µM (inactive)
same,GI50,OVCAR-4,> 100 µM (inactive)
same,GI50,ACHN,> 100 µM (inactive)
same,GI50,OVCAR-8,> 100 µM (inactive)
same,GI50,SNB-75,> 100 µM (inactive)
same,GI50,BT-549,> 100 µM (inactive)
same,GI50,HL-60,> 100 µM (inactive)
same,GI50,SF-295,> 100 µM (inactive)
same,GI50,Hs-578T,> 100 µM (inactive)
same,GI50,SK-MEL-2,> 100 µM (inactive)
same,GI50,NCI-H226,> 100 µM (inactive)
same,GI50,SR,> 100 µM (inactive)
same,GI50,CAKI-1,> 100 µM (inactive)
same,GI50,SW-620,> 100 µM (inactive)
CS(=O)(=O)OCOS(C)(=O)=O,GI50,HCT-116,> 100 µM (inactive)
same,GI50,COLO 205,75.3 µM (inactive)
same,GI50,UO-31,> 100 µM (inactive)
same,GI50,SNB-19,> 100 µM (inactive)
same,GI50,MOLT-4,22.9 µM (inactive)
same,GI50,MDA-MB-435,> 100 µM (inactive)
same,GI50,NCI/ADR-RES,> 100 µM (inactive)
same,GI50,MCF7,34.4 µM (inactive)
same,GI50,MDA-N,> 100 µM (inactive)
same,GI50,U-251,> 100 µM (inactive)
same,GI50,LOX IMVI,43.8 µM (inactive)
same,GI50,786-0,> 100 µM (inactive)
same,GI50,A498,> 100 µM (inactive)
same,GI50,A549,> 100 µM (inactive)
same,GI50,CCRF-CEM,18.5 µM (inactive)
same,GI50,SK-MEL-28,> 100 µM (inactive)
same,GI50,SK-MEL-5,> 100 µM (inactive)
same,GI50,HT-29,48.3 µM (inactive)
same,GI50,HOP-62,> 100 µM (inactive)
same,GI50,DU-145,59.6 µM (inactive)
same,GI50,M14,> 100 µM (inactive)
same,GI50,UACC-257,> 100 µM (inactive)
same,GI50,UACC-62,> 100 µM (inactive)
same,GI50,K562,> 100 µM (inactive)
same,GI50,OVCAR-3,> 100 µM (inactive)
same,GI50,HCC 2998,> 100 µM (inactive)
same,GI50,EKVX,> 100 µM (inactive)
same,GI50,SN12C,> 100 µM (inactive)
same,GI50,NCI-H460,39.8 µM (inactive)
same,GI50,MDA-MB-231,> 100 µM (inactive)
same,GI50,PC-3,> 100 µM (inactive)
same,GI50,HOP-92,> 100 µM (inactive)
same,GI50,KM12,> 100 µM (inactive)
same,GI50,OVCAR-5,> 100 µM (inactive)
same,GI50,SF-539,> 100 µM (inactive)
same,GI50,SK-OV-3,> 100 µM (inactive)
same,GI50,HCT-15,59.3 µM
same,GI50,IGROV-1,> 100 µM (inactive)
same,GI50,NCI-H23,69 µM (inactive)
same,GI50,TK-10,> 100 µM (inactive)
same,GI50,OVCAR-4,> 100 µM (inactive)
same,GI50,ACHN,58.9 µM (inactive)
same,GI50,OVCAR-8,> 100 µM (inactive)
same,GI50,BT-549,> 100 µM (inactive)
same,GI50,HL-60,26.7 µM (inactive)
same,GI50,SF-295,> 100 µM (inactive)
same,GI50,SK-MEL-2,> 100 µM (inactive)
same,GI50,NCI-H226,40.6 µM (inactive)
same,GI50,SR,20.2 µM (inactive)
same,GI50,CAKI-1,69 µM (inactive)
same,GI50,SW-620,34.4 µM (inactive)
same,GI50,RPMI-8226,31.9 µM (inactive)
Cc1cc(C)nc(NCCC(O)(P(=O)(O)O)P(=O)(O)O)n1,GI50,HCT-116,> 100 µM (inactive)
same,GI50,RXF 393,> 100 µM (inactive)
same,GI50,COLO 205,> 100 µM (inactive)
same,GI50,UO-31,> 100 µM (inactive)
same,GI50,SNB-19,> 100 µM (inactive)
same,GI50,NCI/ADR-RES,> 100 µM (inactive)
same,GI50,MCF7,92.5 µM (inactive)
same,GI50,MDA-N,> 100 µM (inactive)
same,GI50,LOX IMVI,> 100 µM (inactive)
same,GI50,786-0,> 100 µM (inactive)
same,GI50,A549,> 100 µM (inactive)
same,GI50,SK-MEL-5,> 100 µM (inactive)
same,GI50,HOP-62,> 100 µM (inactive)
same,GI50,DU-145,> 100 µM (inactive)
same,GI50,M14,> 100 µM (inactive)
same,GI50,UACC-257,> 100 µM (inactive)
same,GI50,UACC-62,> 100 µM (inactive)
same,GI50,OVCAR-3,39.2 µM (inactive)
same,GI50,HCC 2998,> 100 µM (inactive)
same,GI50,EKVX,> 100 µM (inactive)
same,GI50,NCI-H460,> 100 µM (inactive)
same,GI50,NCI-H522,> 100 µM (inactive)
same,GI50,MDA-MB-231,> 100 µM (inactive)
same,GI50,PC-3,> 100 µM (inactive)
same,GI50,SF-268,> 100 µM (inactive)
same,GI50,KM12,> 100 µM (inactive)
same,GI50,OVCAR-5,> 100 µM (inactive)
same,GI50,SF-539,> 100 µM (inactive)
same,GI50,SK-OV-3,> 100 µM (inactive)
same,GI50,HCT-15,> 100 µM
same,GI50,IGROV-1,> 100 µM (inactive)
same,GI50,NCI-H23,> 100 µM (inactive)
same,GI50,Malme-3M,> 100 µM (inactive)
same,GI50,TK-10,> 100 µM (inactive)
same,GI50,ACHN,> 100 µM (inactive)
same,GI50,BT-549,> 100 µM (inactive)
same,GI50,SF-295,> 100 µM (inactive)
same,GI50,NCI-H226,> 100 µM (inactive)
same,GI50,CAKI-1,> 100 µM (inactive)
